Experimental data published in patent publication US11111251B2, “Positive allosteric modulators of the muscarinic acetylcholine receptor M1” (Vanderbilt University, priority 2016, dated 2021).

Biological target: T1, human mAChR M1 (Homo sapiens, UniProt P11229)
T1 sequence (P11229 1-460): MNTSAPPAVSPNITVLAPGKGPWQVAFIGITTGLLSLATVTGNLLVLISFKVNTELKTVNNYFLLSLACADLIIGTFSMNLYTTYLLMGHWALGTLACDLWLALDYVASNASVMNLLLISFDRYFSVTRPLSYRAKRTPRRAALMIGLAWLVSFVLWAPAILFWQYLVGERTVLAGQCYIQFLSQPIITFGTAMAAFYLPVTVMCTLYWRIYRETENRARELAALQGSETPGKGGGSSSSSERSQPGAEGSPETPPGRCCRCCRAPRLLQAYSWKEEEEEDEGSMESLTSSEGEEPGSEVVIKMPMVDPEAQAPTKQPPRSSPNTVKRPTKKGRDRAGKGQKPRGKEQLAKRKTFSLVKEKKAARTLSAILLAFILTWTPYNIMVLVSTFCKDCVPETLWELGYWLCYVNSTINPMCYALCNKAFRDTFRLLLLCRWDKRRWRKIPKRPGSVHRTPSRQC
Experiment: mAChR M1 cell-based functional assay: calcium mobilization, positive allosteric modulator mode (increase in EC20 acetylcholine response)
Details: Table 2, human M1; for EC50: read-out: Human M1 EC50; for Emax: read-out: Human M1 Emax (%)
Summary of the method: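 PAM potency reflects the concentration-dependent increase in calcium response to an EC20 acetylcholine challenge, given 144 s into a 300 s read after compound addition at 4 s (EC80 follows at 230 s). Cells were hM1-expressing CHO-K1, loaded 50 min with Fluo-4 AM. Curves used 11 points at 1:3 dilutions and four-parameter logistic fitting.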

Compound | EC50 [nM] | Emax [%]
CN1CC(NC(=O)c2cc(Cc3ccc(-n4cccn4)cc3)c3sccc3n2)C1 [Compound 435, N-(1-methylazetidin-3-yl)-7-[(4-pyrazol-1-ylphenyl)methyl]thieno[3,2-b]pyridine-5-carboxamide] | 2290 | 76.9
O=C(NC1CCC1)c1cc(Cc2ccc(-n3cccn3)cc2)c2sccc2n1 [Compound 436, N-cyclobutyl-7-[(4-pyrazol-1-ylphenyl)methyl]thieno[3,2-b]pyridine-5-carboxamide] | 1500 | 69.1
CN1CC(NC(=O)c2cc(Cc3ccc(-n4cccn4)cc3)c3sccc3n2)CC1=O (stereo not drawn) [Compound 438, N-(1-methyl-5-oxo-pyrrolidin-3-yl)-7-[(4-pyrazol-1-ylphenyl)methyl]thieno[3,2-b]pyridine-5-carboxamide] | 2210 | 63.1
O=C(NC1CCS(=O)(=O)C1)c1cc(Cc2ccc(-n3cccn3)cc2)c2sccc2n1 (stereo not drawn) [Compound 439, N-(1,1-dioxothiolan-3-yl)-7-[(4-pyrazol-1-ylphenyl)methyl]thieno[3,2-b]pyridine-5-carboxamide] | 400 | 68.1
O=C(NC1CCOC1)c1cc(Cc2ccc(-n3cccn3)cc2)c2sccc2n1 (stereo not drawn) [Compound 440, 7-[(4-pyrazol-1-ylphenyl)methyl]-N-tetrahydrofuran-3-yl-thieno[3,2-b]pyridine-5-carboxamide] | 1970 | 69.3
O=C1CC(NC(=O)c2cc(Cc3ccc(-n4cccn4)cc3)c3sccc3n2)CN1 (stereo not drawn) [Compound 441, N-(5-oxopyrrolidin-3-yl)-7-[(4-pyrazol-1-ylphenyl)methyl]thieno[3,2-b]pyridine-5-carboxamide] | 1480 | 63.7
CC1COCCC1NC(=O)c1cc(Cc2ccc(-n3cccn3)cc2)c2sccc2n1 (stereo not drawn) [Compound 444, N-(3-methyltetrahydropyran-4-yl)-7-[(4-pyrazol-1-ylphenyl)methyl]thieno[3,2-b]pyridine-5-carboxamide] | 263 | 71
O=C(c1cc(Cc2ccc(-n3cccn3)cc2)c2sccc2n1)N1CC2CC1CO2 (stereo not drawn) [Compound 445, 2-oxa-5-azabicyclo[2.2.1]heptan-5-yl-[7-[(4-pyrazol-1-ylphenyl)methyl]thieno[3,2-b]pyridin-5-yl]methanone] | > 10000 | 50.7
O=C(NCc1cc[nH]n1)c1cc(Cc2ccc(-n3cccn3)cc2)c2sccc2n1 [Compound 448, N-(1H-pyrazol-3-ylmethyl)-7-[(4-pyrazol-1-ylphenyl)methyl]thieno[3,2-b]pyridine-5-carboxamide] | 795 | 67.8
Cn1ccc2nc(C(=O)N[C@H]3CCOC[C@@H]3O)cc(Cc3ccc(-c4cscn4)cc3)c21 [Compound 450, N-[(3R,4S)-3-hydroxytetrahydropyran-4-yl]-1-methyl-7-[(4-thiazol-4-ylphenyl)methyl]pyrrolo[3,2-b]pyridine-5-carboxamide] | 6.89 | 71
Cn1ccc2nc(C(=O)NC3CC4(COC4)C3)cc(Cc3ccc(-c4cscn4)cc3)c21 [Compound 452, 1-methyl-N-(2-oxaspiro[3.3]heptan-6-yl)-7-[(4-thiazol-4-ylphenyl)methyl]pyrrolo[3,2-b]pyridine-5-carboxamide] | 339 | 71.9
Cn1ccc2nc(C(=O)N[C@H]3CCCC[C@@H]3O)cc(Cc3ccc(-n4cccn4)cc3)c21 [Compound 454, N-[(1S,2S)-2-hydroxycyclohexyl]-1-methyl-7-[(4-pyrazol-1-ylphenyl)methyl]pyrrolo[3,2-b]pyridine-5-carboxamide] | 13.9 | 69.3
Cn1ccc2nc(C(=O)NC3CCOCC3)cc(Cc3ccc(-n4cccn4)cc3)c21 [Compound 455, 1-methyl-7-[(4-pyrazol-1-ylphenyl)methyl]-N-tetrahydropyran-4-yl-pyrrolo[3,2-b]pyridine-5-carboxamide] | 136 | 75.1
Cn1ccc2nc(C(=O)N[C@H]3CCCCC[C@@H]3O)cc(Cc3ccc(-c4cscn4)cc3)c21 [Compound 456, N-[(1S,2S)-2-hydroxycycloheptyl]-1-methyl-7-[(4-thiazol-4-ylphenyl)methyl]pyrrolo[3,2-b]pyridine-5-carboxamide] | 129 | 67.9
Cn1ccc2nc(C(=O)N[C@H]3CCCC[C@@H]3O)cc(Cc3ccc(-c4cscn4)cc3)c21 [Compound 457, N-[(1S,2S)-2-hydroxycyclohexyl]-1-methyl-7-[(4-thiazol-4-ylphenyl)methyl]pyrrolo[3,2-b]pyridine-5-carboxamide] | 34.8 | 64.8
Cn1ccc2nc(C(=O)N[C@H]3CCC[C@@H]3O)cc(Cc3ccc(-c4cscn4)cc3)c21 [Compound 458, N-[(1S,2S)-2-hydroxycyclopentyl]-1-methyl-7-[(4-thiazol-4-ylphenyl)methyl]pyrrolo[3,2-b]pyridine-5-carboxamide] | 129 | 73.4
Cn1ccc2nc(C(=O)N[C@H]3CC[C@@H]3O)cc(Cc3ccc(-c4cscn4)cc3)c21 [Compound 459, N-[(1S,2S)-2-hydroxycyclobutyl]-1-methyl-7-[(4-thiazol-4-ylphenyl)methyl]pyrrolo[3,2-b]pyridine-5-carboxamide] | 108 | 73.5
C[C@@H]1CC(NC(=O)c2cc(Cc3ccc(-c4cscn4)cc3)c3c(ccn3C)n2)C[C@H](C)O1 (stereo partly drawn) [Compound 460, N-[(2S,6R)-2,6-dimethyltetrahydropyran-4-yl]-1-methyl-7-[(4-thiazol-4-ylphenyl)methyl]pyrrolo[3,2-b]pyridine-5-carboxamide] | 379 | 70.3

The remaining compounds from weak to strong by EC50, led by results:

EC50 [nM] | Emax [%] | Compound
2050 | 67.9 | Cn1ccc2nc(C(=O)N[C@H]3CCCOC3)cc(Cc3ccc(-c4cscn4)cc3)c21 [Compound 462, 1-methyl-N-[(3S)-tetrahydropyran-3-yl]-7-[(4-thiazol-4-ylphenyl)methyl]pyrrolo[3,2-b]pyridine-5-carboxamide]
1770 | 65.4 | O=C(NC1CN(C2COC2)C1)c1cc(Cc2ccc(-n3cccn3)cc2)c2sccc2n1 [Compound 433, N-[1-(oxetan-3-yl)azetidin-3-yl]-7-[(4-pyrazol-1-ylphenyl)methyl]thieno[3,2-b]pyridine-5-carboxamide]
1490 | 71.8 | CN1CCCC(NC(=O)c2cc(Cc3ccc(-n4cccn4)cc3)c3sccc3n2)C1 (stereo not drawn) [Compound 442, N-(1-methyl-3-piperidyl)-7-[(4-pyrazol-1-ylphenyl)methyl]thieno[3,2-b]pyridine-5-carboxamide]
1480 | 66.6 | CN1CCC(NC(=O)c2cc(Cc3ccc(-n4cccn4)cc3)c3sccc3n2)CC1 [Compound 443, N-(1-methyl-4-piperidyl)-7-[(4-pyrazol-1-ylphenyl)methyl]thieno[3,2-b]pyridine-5-carboxamide]
1460 | 66.2 | CC(C)(C)N1CC(NC(=O)c2cc(Cc3ccc(-n4cccn4)cc3)c3sccc3n2)C1 [Compound 434, N-(1-tert-butylazetidin-3-yl)-7-[(4-pyrazol-1-ylphenyl)methyl]thieno[3,2-b]pyridine-5-carboxamide]
1100 | 73.9 | O=C(NC1CCCOC1)c1cc(Cc2ccc(-n3cccn3)cc2)c2sccc2n1 (stereo not drawn) [Compound 447, 7-[(4-pyrazol-1-ylphenyl)methyl]-N-tetrahydropyran-3-yl-thieno[3,2-b]pyridine-5-carboxamide]
922 | 72.8 | CC(NC(=O)c1cc(Cc2ccc(-n3cccn3)cc2)c2sccc2n1)C1CCCO1 (stereo not drawn) [Compound 446, 7-[(4-pyrazol-1-ylphenyl)methyl]-N-(1-tetrahydrofuran-2-ylethyl)thieno[3,2-b]pyridine-5-carboxamide]
410 | 70.8 | Cn1ccc2nc(C(=O)NC3CCOC(C)(C)C3)cc(Cc3ccc(-c4cscn4)cc3)c21 (stereo not drawn) [Compound 461, N-(2,2-dimethyltetrahydropyran-4-yl)-1-methyl-7-[(4-thiazol-4-ylphenyl)methyl]pyrrolo[3,2-b]pyridine-5-carboxamide]
201 | 70 | O=C(NC1CCCC1=O)c1cc(Cc2ccc(-n3cccn3)cc2)c2sccc2n1 (stereo not drawn) [Compound 437, N-(2-oxocyclopentyl)-7-[(4-pyrazol-1-ylphenyl)methyl]thieno[3,2-b]pyridine-5-carboxamide]
184 | 71.7 | Cn1ccc2nc(C(=O)NC3CCOCC3)cc(Cc3ccc(-c4cscn4)cc3)c21 [Compound 451, 1-methyl-N-tetrahydropyran-4-yl-7-[(4-thiazol-4-ylphenyl)methyl]pyrrolo[3,2-b]pyridine-5-carboxamide]
157 | 73.1 | Cn1ccc2nc(C(=O)NC3CC4(COC4)C3)cc(Cc3ccc(-n4cccn4)cc3)c21 [Compound 449, 1-Methyl-N-(2-oxaspiro[3.3]heptan-6-yl)-7-[(4-pyrazol-1-ylphenyl)methyl]pyrrolo[3,2-b]pyridine-5-carboxamide]
6.77 | 63.1 | Cn1ccc2nc(C(=O)N[C@H]3CCOC[C@@H]3O)cc(Cc3ccc(-n4cccn4)cc3)c21 [Compound 453, N-[(3R,4S)-3-hydroxytetrahydropyran-4-yl]-1-methyl-7-[(4-pyrazol-1-ylphenyl)methyl]pyrrolo[3,2-b]pyridine-5-carboxamide]
